Measured values published in article PMC9097457 (The Journal of Biological Chemistry, 2022).
Structures can show the parent of a compound that is named as a salt.

Columns and labels:
adenylate kinase = assay: Conversion of [3H]-dAMP to [3H]-dATP in isolated heart mitochondria; type: biochemical, rat
Description: (§1) Thus, we were interested in determining if the dGTP and dATP phosphorylation pathway in isolated mitochondria functioned similarly.
(§2) [^3H]-dGMP (1 μM) or [^3H]-dAMP (1 μM) was incubated in heart mitochondria as described for Figure 1 for the times shown, and their conversion to [^3H]-dGTP and [^3H]-dATP, respectively, determined in the presence and absence of Ap5A ([…]), a competitive inhibitor of adenylate kinase. Data are shown as a box plot of two independent experiments. The thickness of the lines indicates the spread of the duplicates. Ap5A, P1,P5-di(adenosine-5) pentaphosphate pentasodium salt.
To measure and compare phosphorylation and kinetics, a stable substrate concentration was necessary and EHNA (5 μM) ([50]) and I-H (2.0 μM) ([49]) were added to all mitochondrial incubations. […] The mitochondria were incubated in vitro for up to 2 h at 37 °C in a shaker bath. At the end of the incubation, reactions were terminated by addition of 10% TCA to an equal volume of incubation mixture (175 μl) and spun in a microcentrifuge to remove precipitates. […] The neutralized and filtered supernatants were analyzed by ultra high pressure liquid chromatography (UPLC). Radioactivity was determined from aliquots of each sample and processed through a Beckman Coulter multipurpose liquid scintillation counter (model 6500).

heart mitochondria = assay: Conversion of [3H]-dGMP to [3H]-dGTP in isolated heart mitochondria; type: biochemical, rat
Description: as §1, §2
(§3) To measure and compare phosphorylation and kinetics, a stable substrate concentration was necessary and EHNA (5 μM) ([50]) and I-H (2.0 μM) ([49]) were added to all mitochondrial incubations. […] The mitochondria were incubated in vitro for up to 2 h at 37 °C in a shaker bath. At the end of the incubation, reactions were terminated by addition of 10% TCA to an equal volume of incubation mixture (175 μl) and spun in a microcentrifuge to remove precipitates. The supernatant was neutralized with AG 11 A8 resin and filtered through a […] nylon syringe filter. The neutralized and filtered supernatants were analyzed by ultra high pressure liquid chromatography (UPLC). Radioactivity was determined from aliquots of each sample and processed through a Beckman Coulter multipurpose liquid scintillation counter (model 6500).

[1] = target: T1, adenosine deaminase (ADA) (Rattus norvegicus, UniProt Q920P6)
T1 sequence (Q920P6 1-352): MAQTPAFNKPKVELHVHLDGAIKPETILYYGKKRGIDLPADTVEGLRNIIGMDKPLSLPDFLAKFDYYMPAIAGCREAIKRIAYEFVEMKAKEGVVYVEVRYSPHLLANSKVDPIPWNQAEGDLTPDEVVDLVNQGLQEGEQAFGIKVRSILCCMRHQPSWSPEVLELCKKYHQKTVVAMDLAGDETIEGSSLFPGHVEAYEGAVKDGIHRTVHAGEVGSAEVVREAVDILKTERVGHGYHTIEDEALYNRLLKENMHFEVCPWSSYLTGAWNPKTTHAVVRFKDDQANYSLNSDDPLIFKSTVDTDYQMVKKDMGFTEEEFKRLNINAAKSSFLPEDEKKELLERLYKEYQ
Description: (§6) To measure and compare phosphorylation and kinetics, a stable substrate concentration was necessary and EHNA (5 μM) ([50]) and I-H (2.0 μM) ([49]) were added to all mitochondrial incubations. […] The mitochondria were incubated in vitro for up to 2 h at 37 °C in a shaker bath. At the end of the incubation, reactions were terminated by addition of 10% TCA to an equal volume of incubation mixture (175 μl) and spun in a microcentrifuge to remove precipitates. The supernatant was neutralized with AG 11 A8 resin and filtered through a 0.2-μM nylon syringe filter. The neutralized and filtered supernatants were analyzed by ultra high pressure liquid chromatography (UPLC). Radioactivity was determined from aliquots of each sample and processed through a Beckman Coulter multipurpose liquid scintillation counter (model 6500).

[2] = target: T2, deoxyguanosine kinase (dGK) (Rattus norvegicus, UniProt A0A0G2K478); assay: Tissue-specific phosphorylation of [3H]-dG, [3H]-dA and [3H]-ETV in isolated mitochondria; type: biochemical; details: heart mitochondria
T2 sequence (A0A0G2K478 with tags, fused parts or gaps): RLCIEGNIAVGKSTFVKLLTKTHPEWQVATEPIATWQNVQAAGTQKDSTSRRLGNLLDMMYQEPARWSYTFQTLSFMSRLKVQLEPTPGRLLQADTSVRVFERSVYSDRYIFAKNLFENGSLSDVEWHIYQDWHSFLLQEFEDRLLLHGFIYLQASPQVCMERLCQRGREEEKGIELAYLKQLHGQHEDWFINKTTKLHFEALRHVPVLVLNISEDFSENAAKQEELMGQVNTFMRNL
Description: As noted in the Experimental procedures, these were added together to determine total phosphorylation.
as §3
(§4) Extent of phosphorylation was measured and analyzed by UPLC (Agilent 1290) with a reverse-phase C18 column (Zorbax Eclipse Plus C18; 3.0 × 150 mm, 1.8 micron) coupled with an inline diode array to detect UV signal at 254 nm and to an inline liquid scintillation counter (β-Ram) to quantitate radioactivity.
(§5) The radioactivity in each of these peaks was quantitated and totaled to provide the total amount of radioactivity in the phosphorylated products for each labeled precursor. This total was divided by the specific radioactivity of the precursor and expressed as pmol/mg protein/hr. The Kms were calculated from Lineweaver–Burk plots 1/Vo=Km/Vmax[S]+1/Vmax

[3] = target: T2, deoxyguanosine kinase (dGK); assay: Inhibition of [3H]-dA phosphorylation by competing deoxynucleosides in liver mitochondria; type: biochemical; details: IC50 values at 1 μM substrate
Description: as §3, §5

isolated rat heart [4] = assay: Phosphorylation of [3H]-ETV, [3H]-dG and [3H]-dA in the isolated perfused rat heart (Langendorff)
Description: The phosphorylation of [^3H]-dG, [^3H]-dA, and [^3H]-ETV in isolated mitochondria depends on the activity of the mitochondrial dGK. To determine the degree of phosphorylation in a whole tissue, which would include the activity of the cytosolic dCK, we utilized an isolated rat heart Langendorff retrograde perfusion model. The breakdown and phosphorylation of [^3H]-ETV, [^3H]-dG, and [^3H]-dA (0.5 μM each) was measured in the perfusates and in the hearts after 60 min of perfusion (Fig. 9, A and B). […] However, the heart was still able to take up and maintain a small amount of dG to generate 0.18 ± 0.05 pmol/mg wet heart of phosphorylated dG during the 60-min perfusion. […] Despite the loss of [^3H]-dA from the perfusate, the heart took up and maintained enough dA to produce 0.48 ± 0.08 pmol/mg wet heart of phosphorylated [^3H]-dA products at 60 min (Fig. 9B). […] Note that [^3H]-dG and [^3H]-dG catabolites equilibrate rapidly between the perfusion buffer and the heart, while the phosphorylated forms of [^3H]-dG are retained solely in the heart tissue.
Figure 9 [^3H]-ETV and [^3H]-dG phosphorylation in a perfused rat heart. Rat hearts were removed and perfused using the Langendorff method for 1 h as described in Experimental procedures with 0.5 μM [^3H]-ETV, 0.5 μM [^3H]-dG), or 0.5 μM [^3H]-dA. […] A, the amount of exogenous [^3H]-parent compound in the perfusate as a function of time, plotted as a box plot of three independent experiments. See text for details. B, the amount of phosphorylated [^3H]-ETV, [^3H]-dG, or [^3H]-dA in the heart tissue after 60 min of perfusion with additions as noted in (A). See text for details.
Rat hearts were perfused by Langendorff retrograde perfusion apparatus with [^3H]-dG, [^3H]-dA, or [^3H]-ETV for 60 min under the conditions previously described ([25], [26], [51]). Perfused hearts were snap frozen into wafers by clamping the heart in liquid nitrogen, and the frozen tissue wafers were stored in −80 °C until processed as previously described for ([24]) UPLC analysis.

[5] = target: T2, deoxyguanosine kinase (dGK); assay: Kinetic analysis of [3H]-dG and [3H]-ETV phosphorylation and cross inhibition in heart mitochondria; type: biochemical; details: 40 μM ETV, data of Figure 4
Description: as §3, §5

isolated rat heart [6] = assay: Breakdown of the [3H]-parent compound in the perfusate of the isolated perfused rat heart; type: in vitro ADME
Description: To determine the degree of phosphorylation in a whole tissue, which would include the activity of the cytosolic dCK, we utilized an isolated rat heart Langendorff retrograde perfusion model.
See text for details. […] See text for details.
Perfused hearts were snap frozen into wafers by clamping the heart in liquid nitrogen, and the frozen tissue wafers were stored in −80 °C until processed as previously described for ([24]) UPLC analysis.

[7] = target: T3, purine nucleoside phosphorylase (PNP) (Rattus norvegicus, UniProt P85973); details: 2.0 μM, kidney mitochondria, 60 min
T3 sequence (P85973 1-289): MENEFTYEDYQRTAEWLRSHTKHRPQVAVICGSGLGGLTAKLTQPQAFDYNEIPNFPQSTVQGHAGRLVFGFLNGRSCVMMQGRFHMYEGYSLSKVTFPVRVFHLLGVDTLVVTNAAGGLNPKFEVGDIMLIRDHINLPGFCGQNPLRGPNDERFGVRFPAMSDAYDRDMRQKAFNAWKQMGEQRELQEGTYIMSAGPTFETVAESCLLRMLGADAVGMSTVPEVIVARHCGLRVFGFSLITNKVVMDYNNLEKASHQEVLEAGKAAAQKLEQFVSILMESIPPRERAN
Description: as §6

[8] = target: T2, deoxyguanosine kinase (dGK); assay: Pilot study: effect of 100 μM dG/dA nucleoside analogs on [3H]-dG or [3H]-dA phosphorylation in isolated mitochondria; type: biochemical; details: 100 μM analog; [3H]-dG 0.5 μM in liver, kidney, heart, brain mitochondria; [3H]-dA in liver mitochondria; 2 h; + EHNA 5 μM, I-H 2 μM
Description: Immucillin-H (I-H) (2 μM) and EHNA (5 μM) were added to the incubation mixture to prevent the breakdown of substrate by purine nucleoside phosphorylase (PNP) and adenosine deaminase (ADA) activity, respectively.
as §3, §4, §5

## Nc1ncnc2c1ncn2[C@@H]1O[C@H](COP(=O)([O-])OP(=O)([O-])OP(=O)([O-])OP(=O)([O-])OP(=O)([O-])OC[C@H]2O[C@@H](n3cnc4c(N)ncnc43)[C@H](O)[C@@H]2O)[C@@H](O)[C@H]1O.[Na+].[Na+].[Na+].[Na+].[Na+] [Ap5A, P1,P5-di(adenosine-5) pentaphosphate pentasodium salt]
Adenylate kinase; Ap5A 40 μM
  effect on conversion of [3H]-dAMP to [3H]-dATP: inhibited
Heart mitochondria; Ap5A 40 μM
  effect on phosphorylation of dGMP: not inhibited

## CCCCCCC(C(C)O)n1cnc2c(N)ncnc21.Cl (stereo not drawn) [EHNA, erythro-9-(2-Hydroxy-3-nonyl)-adenine hydrochloride]
[1]; EHNA 5 μM, 60 min
  effect on conversion of [3H]-dA to breakdown products: completely prevented this conversion
[2]
  effect on [3H]-dA or [3H]-dG phosphorylation: no effect

## C=C1[C@H](CO)[C@@H](O)C[C@@H]1n1cnc2c(=O)[nH]c(N)nc21 [ETV, entecavir]
[3]
  inhibition of dA phosphorylation more potent than ETV inhibition of dG phosphorylation: 500 fold
Isolated rat heart [4]; 0.5 μM labeled compound alone, 60-min perfusion
  phosphorylated product in heart: 0.25 ± 0.05 pmol/mg wet heart
Isolated rat heart [4]; 100 μM unlabeled ETV added to [3H]-dG + I-H, 60-min perfusion
  inhibition of [3H]-dG phosphorylation: 82.0 ± 0.7%
Isolated rat heart [4]; ETV 100 μM added to the perfusate
  effect on [3H]-dA phosphorylation: did not appear to inhibit
[5]
  rate of [3H]-dG phosphorylation to [3H]-dGTP in the presence of inhibitor: 12.4 ± 2.0 pmol/mg protein/hr
Heart mitochondria; ETV 40 μM
  effect on conversion of [3H]-dGMP to [3H]-dGTP: no effect

## O=c1[nH]cnc2c([C@@H]3N[C@H](CO)[C@@H](O)[C@H]3O)c[nH]c12 [I-H, forodesine hydrochloride]
Isolated rat heart [6]; I-H 2 μM
  effect on breakdown of dG in the perfusate: prevented most of the breakdown
[1]; Immucillin-H 2.0 μM, 60 min
  effect on [3H]-dA breakdown: no effect
[2]
  effect on [3H]-dA or [3H]-dG phosphorylation: no effect
[7]
  effect on conversion of [3H]-dG to breakdown products: completely prevented this conversion

## CC(C)OC(=O)OCOP(=O)(CO[C@H](C)Cn1cnc2c(N)ncnc21)OCOC(=O)OC(C)C.O=C(O)/C=C/C(=O)O [TDF, tenofovir disproxil fumarate]
[8]
  inhibition of the phosphorylation of dA and dG: ETV was shown to be the only dG/dA analog of the eight tested that showed significant inhibition

## Nc1ncnc2c1ncn2CCOCP(=O)(O)O [adefovir]
[8]
  inhibition of the phosphorylation of dA and dG: ETV was shown to be the only dG/dA analog of the eight tested that showed significant inhibition

## Nc1ncnc2c1ncn2[C@H]1C[C@H](O)[C@@H](CO)O1 [dA, deoxyadenosine]
Isolated rat heart [4]; 0.5 μM [3H]-dA, I-H and EHNA in the perfusate, 60 min
  phosphorylated [3H]-dA products in heart: 0.48 ± 0.08 pmol/mg wet heart
Isolated rat heart [6]; 0.5 μM [3H]-dA, EHNA added
  parent compound in the perfusate by 60 min: complete loss
  parent compound remaining in the perfusate by 3 min: 47.5%
Isolated rat heart [6]; 0.5 μM [3H]-dA, in the presence of I-H
  parent compound in the perfusate by 3 min: completely lost
[1]; heart mitochondria, initial studies
  stability in heart mitochondria: stable
[1]; mitochondria isolated from kidney, 60 min, no inhibitor
  conversion of [3H]-dA to breakdown products: 28%

## Nc1ncnc2c1ncn2[C@H]1C[C@H](O)[C@@H](COP(=O)(O)O)O1 [dAMP]
Adenylate kinase; 1 μM
  time to complete conversion to [3H]-dATP: ≤ 10 min

## Nc1nc2c(ncn2[C@H]2C[C@H](O)[C@@H](COP(=O)(O)O)O2)c(=O)[nH]1 [dGMP]
Heart mitochondria; 1 μM
  plateau, complete conversion of [3H]-dGMP to [3H]-dGTP: 123 ± 1 pmol/mg protein
Heart mitochondria; 1 μM precursor
  conversion to [3H]-dGTP at the 30-min time point: 106 ± 4 pmol/mg protein
Heart mitochondria; 30 min
  conversion of dGMP to dGTP faster than conversion of dG to dGTP: 4.6 times

## Nc1nc2c(ncn2[C@H]2CC[C@@H](CO)O2)c(=O)[nH]1 [dideoxyguanosine]
[8]
  inhibition of the phosphorylation of dA and dG: ETV was shown to be the only dG/dA analog of the eight tested that showed significant inhibition

## Nc1nc(O)c2ncn(COC(CO)CO)c2n1 [ganciclovir]
[8]
  inhibition of the phosphorylation of dA and dG: ETV was shown to be the only dG/dA analog of the eight tested that showed significant inhibition

## Nc1nc(=O)c2ncn([C@@H]3C[C@H](CO)[C@H]3CO)c2[nH]1 [lobucavir]
[8]
  inhibition of the phosphorylation of dA and dG: ETV was shown to be the only dG/dA analog of the eight tested that showed significant inhibition

## Nc1nc2c(ncn2CCC(CO)CO)c(=O)[nH]1 [penciclovir]
[8]
  inhibition of the phosphorylation of dA and dG: ETV was shown to be the only dG/dA analog of the eight tested that showed significant inhibition

## C[C@H](Cn1cnc2c(N)ncnc21)OCP(=O)(O)O [tenofovir]
[8]
  inhibition of the phosphorylation of dA and dG: ETV was shown to be the only dG/dA analog of the eight tested that showed significant inhibition
